In PMC3898987 (Bioorganic & Medicinal Chemistry, 2013):
Substitutions are numbered along the chain they refer to.

Legend:
5-HT3A receptor Y73A = molecular target: T1, 5-HT3A receptor Y73A (Homo sapiens, UniProt P46098, Y68A); assay: radioligand saturation binding, transfected HEK293 membranes; settings: [3H]-palonosetron saturation, 5-HT3A Y73A, 4 °C, 24 h
T1 sequence (P46098 24-478 Y68A): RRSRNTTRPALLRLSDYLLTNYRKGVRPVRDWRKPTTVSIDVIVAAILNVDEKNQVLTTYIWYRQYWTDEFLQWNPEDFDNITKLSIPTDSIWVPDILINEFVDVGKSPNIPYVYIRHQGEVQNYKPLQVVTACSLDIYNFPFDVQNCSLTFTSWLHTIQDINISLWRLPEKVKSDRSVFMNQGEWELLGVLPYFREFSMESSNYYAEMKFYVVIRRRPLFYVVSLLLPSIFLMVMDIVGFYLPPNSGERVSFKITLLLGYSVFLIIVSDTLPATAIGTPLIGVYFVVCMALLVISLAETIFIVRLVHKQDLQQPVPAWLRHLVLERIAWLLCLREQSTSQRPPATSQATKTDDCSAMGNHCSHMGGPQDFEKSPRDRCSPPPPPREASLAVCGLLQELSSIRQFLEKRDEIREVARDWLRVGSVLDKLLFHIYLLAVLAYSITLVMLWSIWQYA
Description: (§1) Human embryonic kidney (HEK) 293 cells were cultured on 90 mm tissue culture plates at 37 °C and 7% CO2 in a humidified atmosphere. They were grown in DMEM:F12 (Dulbecco’s Modified Eagle’s Medium/Nutrient Mix F12 (1:1)) with GlutaMAX I™ containing 10% fetal calf serum and passaged when confluent. For radioligand binding studies, cells in 90 mm dishes were transfected at 60–70% confluency using polyethyleneimine and incubated for 3–4 days before use. For FlexStation assays, transfected cells were plated on 96-well plates and incubated 1–2 days before assay. […]
(§2) Eight-point binding assays were performed to produce saturation binding curves. […] Radioactive counts were measured using a Beckman LS6000SC liquid scintillation counter (Fullerton, California, USA).
(§3) Data were analyzed by iterative curve fitting using GraphPad Prism v5 (San Diego, CA) according to the following equation: B=Bmax[L]^n/kdn+[L]^n where B is the amount of bound radioligand, Bmax is the maximum specific binding at equilibrium, [L] is the concentration of radioligand, Kd is the equilibrium dissociation constant of the radioligand, and n is the Hill coefficient.

[1] = molecular target: T2, 5-HT3AB receptor, 5-HT3B subunit I183A (Homo sapiens, UniProt O95264+P46098, I176A); assay: as above; settings: [3H]-palonosetron saturation, 5-HT3AB with 5-HT3B I183A, 4 °C, 24 h
T2 sequence (P46098 24-478): T1 sequence (P46098 24-478 Y68A) with A45Y
T2 sequence (O95264 22-441 I176A): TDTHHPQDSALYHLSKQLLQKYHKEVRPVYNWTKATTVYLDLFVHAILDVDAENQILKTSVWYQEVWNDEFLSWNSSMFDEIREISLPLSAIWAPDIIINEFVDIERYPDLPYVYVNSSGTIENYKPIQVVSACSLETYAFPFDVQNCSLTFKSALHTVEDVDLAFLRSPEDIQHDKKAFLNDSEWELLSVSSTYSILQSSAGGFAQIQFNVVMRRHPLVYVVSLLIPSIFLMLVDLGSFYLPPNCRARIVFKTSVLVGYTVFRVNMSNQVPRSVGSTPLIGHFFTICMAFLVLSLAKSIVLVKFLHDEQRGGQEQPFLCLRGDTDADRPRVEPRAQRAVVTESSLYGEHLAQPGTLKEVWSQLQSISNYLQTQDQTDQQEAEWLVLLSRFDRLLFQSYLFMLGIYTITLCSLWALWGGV
Description: as §1, §2, §3

5-HT3A receptor S163T = molecular target: T3, 5-HT3A receptor S163T (Homo sapiens, UniProt P46098, S158T); assay: FlexStation membrane potential dye functional assay, HEK293 cells; format: cell-based; design: expressed in transfected cells; host or cells: HEK293; settings: inhibition of 5-HT (EC50 concentration) response, 45 min preincubation, 5-HT3A S163T
T3 sequence (P46098 24-478 S158T): T1 sequence (P46098 24-478 Y68A) with A45Y, S135T
Description: For FlexStation assays, transfected cells were plated on 96-well plates and incubated 1–2 days before assay.
Fluorometric studies were undertaken using a FlexStation® (Molecular Devices, Sunnyvale, CA, USA) as previously described.[11]
Fluorescence was measured every 2 s for 200 s. […] Concentration–response and inhibition curves were obtained for each mutant, and the fluorescence values were normalized to the maximal response.

5-HT3A receptor D165K = molecular target: T4, 5-HT3A receptor D165K (Homo sapiens, UniProt P46098, D160K); assay: radioligand saturation binding, transfected HEK293 membranes; settings: [3H]-palonosetron saturation, 5-HT3A D165K, 4 °C, 24 h
T4 sequence (P46098 24-478 D160K): T1 sequence (P46098 24-478 Y68A) with A45Y, D137K
Description: as §1, §2, §3

Q: What does the source list for `O=C1c2cccc3c2[C@H](CCC3)CN1[C@@H]1CN2CCC1CC2` [Palonosetron]?
A: Kd (5-HT3A receptor Y73A): 0.87 ± 0.04 nM; Kd [1]: 0.23 ± 0.12 nM; IC50 (5-HT3A receptor S163T): 1.02 ± 0.19 nM; Kd (5-HT3A receptor D165K): 0.36 ± 0.02 nM
